From patent US10405547B2, “Substituted cyclic amides as herbicides” (FMC Corporation, priority 2015, dated 2019)

Key:
Assay type in all cases: in vivo
[1] = system: barnyardgrass (Echinochloa crus-galli); test: Test A preemergence, barnyardgrass; settings: 0 to 100 scale (0 no effect, 100 complete control)
In short: (§1)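 Greenhouse assay; ~10 d; visual injury vs untreated control, scored 0 = no effect through 100 = complete control. Post-emergent seedlings at one–two leaves; pre-emergent seeds in loam/sand given a directed soil spray.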

kochia (Kochia scoparia) = test: Test A preemergence, kochia; settings: 0 to 100 scale (0 no effect, 100 complete control)
In short: as §1

[2] = system: ragweed (common ragweed, Ambrosia elatior); test: Test A preemergence, ragweed; settings: 0 to 100 scale (0 no effect, 100 complete control)
In short: as §1

[3] = system: ryegrass, Italian (Lolium multiflorum); test: Test A preemergence, Italian ryegrass; settings: 0 to 100 scale (0 no effect, 100 complete control)
In short: as §1

[4] = system: foxtail, giant (Setaria faberii); test: Test A preemergence, giant foxtail; settings: 0 to 100 scale (0 no effect, 100 complete control)
In short: as §1

[5] = system: pigweed (Amaranthus retroflexus); test: Test A preemergence, pigweed; settings: 0 to 100 scale (0 no effect, 100 complete control)
In short: as §1

[6] = system: barnyardgrass (Echinochloa crus-galli); test: Test A postemergence, barnyardgrass; settings: visual injury, 0 to 100 scale (0 no effect, 100 complete control), approximately 10 days
In short: as §1

[7] = system: ragweed (common ragweed, Ambrosia elatior); test: Test A postemergence, ragweed; settings: visual injury, 0 to 100 scale (0 no effect, 100 complete control), approximately 10 days
In short: as §1

[8] = system: ryegrass, Italian (Lolium multiflorum); test: Test A postemergence, Italian ryegrass; settings: visual injury, 0 to 100 scale (0 no effect, 100 complete control), approximately 10 days
In short: as §1

[9] = system: foxtail, giant (Setaria faberii); test: Test A postemergence, giant foxtail; settings: visual injury, 0 to 100 scale (0 no effect, 100 complete control), approximately 10 days
In short: as §1

[10] = system: pigweed (Amaranthus retroflexus); test: Test A postemergence, pigweed; settings: visual injury, 0 to 100 scale (0 no effect, 100 complete control), approximately 10 days
In short: as §1

[11] = system: blackgrass (Alopecurus myosuroides); test: Test A postemergence, blackgrass; settings: visual injury, 0 to 100 scale (0 no effect, 100 complete control), approximately 10 days
In short: as §1

[12] = system: galium (catchweed bedstraw, Galium aparine); test: Test A postemergence, galium; settings: visual injury, 0 to 100 scale (0 no effect, 100 complete control), approximately 10 days
In short: as §1

[13] = system: wheat (Triticum aestivum); test: Test A postemergence, wheat; settings: visual injury, 0 to 100 scale (0 no effect, 100 complete control), approximately 10 days
In short: as §1

corn (Zea mays) = test: Test A postemergence, corn; settings: visual injury, 0 to 100 scale (0 no effect, 100 complete control), approximately 10 days
In short: as §1

rice (Oryza sativa) = test: Test B flooded paddy test, rice; settings: 250 g ai/ha, applied to paddy water, visual rating after 13 to 15 days, scale 0 (no effect) to 100 (complete control)
Text: (§2) At time of treatment, test pots were flooded to 3 cm above the soil surface, treated by application of test compounds directly to the paddy water, and then maintained at that water depth for the duration of the test. Treated plants and controls were maintained in a greenhouse for 13 to 15 days, after which time all species were compared to controls and visually evaluated. […] A dash (-) response means no test result.

[14] = system: sedge, umbrella (small-flower umbrella sedge, Cyperus difformis); test: Test B flooded paddy test, umbrella sedge; settings: 250 g ai/ha, applied to paddy water, visual rating after 13 to 15 days, scale 0 (no effect) to 100 (complete control)
Text: as §2

[15] = system: ducksalad (Heteranthera limosa); test: Test B flooded paddy test, ducksalad; settings: 250 g ai/ha, applied to paddy water, visual rating after 13 to 15 days, scale 0 (no effect) to 100 (complete control)
Text: as §2

[16] = system: barnyardgrass (Echinochloa crus-galli); test: Test B flooded paddy test, barnyardgrass; settings: 250 g ai/ha, applied to paddy water, visual rating after 13 to 15 days, scale 0 (no effect) to 100 (complete control)
Text: as §2

With `CN1CC(c2cccc(Sc3ccccc3)c2)C(C(=O)Nc2ccccc2F)C1=O` (single isomer, unassigned) [Compound 50] the “Plant response rating, Barnyardgrass” value ([1]; 125 g ai/ha) was 0, the “Plant response rating, Barnyardgrass” value ([1]; 500 g ai/ha) was 40 and the “Plant response rating, Kochia” value (kochia (Kochia scoparia); 125 g ai/ha) was 0. The “Plant response rating, Kochia” value (kochia (Kochia scoparia); 500 g ai/ha) was 30, the “Plant response rating, Ragweed” value ([2]; 125 g ai/ha) was 0 and the “Plant response rating, Ragweed” value ([2]; 500 g ai/ha) was 30. For the same compound, the “Plant response rating, Ryegrass, Italian” value ([3]; 125 g ai/ha) was 0, the “Plant response rating, Ryegrass, Italian” value ([3]; 500 g ai/ha) was 0 and the “Plant response rating, Foxtail, Giant” value ([4]; 125 g ai/ha) was 90. For the same compound, the “Plant response rating, Foxtail, Giant” value ([4]; 500 g ai/ha) was 90, the “Plant response rating, Pigweed” value ([5]; 125 g ai/ha) was 20 and the “Plant response rating, Pigweed” value ([5]; 500 g ai/ha) was 20. For the same compound, the “Plant response rating, Barnyardgrass” value ([6]; 125 g ai/ha) was 0, the “Plant response rating, Barnyardgrass” value ([6]; 500 g ai/ha) was 30 and the “Plant response rating, Ragweed” value ([7]; 125 g ai/ha) was 0. For the same compound, the “Plant response rating, Ragweed” value ([7]; 500 g ai/ha) was 0, the “Plant response rating, Ryegrass, Italian” value ([8]; 125 g ai/ha) was 0 and the “Plant response rating, Ryegrass, Italian” value ([8]; 500 g ai/ha) was 0. The “Plant response rating, Foxtail, Giant” value ([9]; 125 g ai/ha) was 50, the “Plant response rating, Foxtail, Giant” value ([9]; 500 g ai/ha) was 70 and the “Plant response rating, Pigweed” value ([10]; 125 g ai/ha) was 0. For the same compound, the “Plant response rating, Pigweed” value ([10]; 500 g ai/ha) was 30, the “Plant response rating, Blackgrass” value ([11]; 125 g ai/ha) was 0 and the “Plant response rating, Blackgrass” value ([11]; 500 g ai/ha) was 0. The “Plant response rating, Galium” value ([12]; 125 g ai/ha) was 0, the “Plant response rating, Galium” value ([12]; 500 g ai/ha) was 40 and the “Plant response rating, Wheat” value ([13]; 125 g ai/ha) was 0. For the same compound, the “Plant response rating, Wheat” value ([13]; 500 g ai/ha) was 0, the “Plant response rating, Corn” value (corn (Zea mays); 125 g ai/ha) was 0 and the “Plant response rating, Corn” value (corn (Zea mays); 500 g ai/ha) was 20. The “Plant response rating, Rice (Flood)” value (rice (Oryza sativa)) was 0, the “Plant response rating, Sedge, Umbrella (Flood)” value [14] was 0 and the “Plant response rating, Ducksalad (Flood)” value [15] was 70. For the same compound, the “Plant response rating, Barnyardgrass (Flood)” value [16] was 0.

In the case of `O=C1NCC(c2cccc(Oc3ccc(F)cn3)c2)C1C(=O)Nc1cccc(F)c1F` (single isomer, unassigned) [Compound 52], the “Plant response rating, Barnyardgrass” value ([1]; 125 g ai/ha) is reported as 70, the “Plant response rating, Barnyardgrass” value ([1]; 500 g ai/ha) is reported as 90 and the “Plant response rating, Kochia” value (kochia (Kochia scoparia); 125 g ai/ha) is reported as 70. For the same compound, the “Plant response rating, Kochia” value (kochia (Kochia scoparia); 500 g ai/ha) was 80, the “Plant response rating, Ragweed” value ([2]; 125 g ai/ha) was 40 and the “Plant response rating, Ragweed” value ([2]; 500 g ai/ha) was 80. For the same compound, the “Plant response rating, Ryegrass, Italian” value ([3]; 125 g ai/ha) was 30, the “Plant response rating, Ryegrass, Italian” value ([3]; 500 g ai/ha) was 40 and the “Plant response rating, Foxtail, Giant” value ([4]; 125 g ai/ha) was 90. For the same compound, the “Plant response rating, Foxtail, Giant” value ([4]; 500 g ai/ha) was 90, the “Plant response rating, Pigweed” value ([5]; 125 g ai/ha) was 60 and the “Plant response rating, Pigweed” value ([5]; 500 g ai/ha) was 70. For the same compound, the “Plant response rating, Barnyardgrass” value ([6]; 125 g ai/ha) was 70, the “Plant response rating, Barnyardgrass” value ([6]; 500 g ai/ha) was 80 and the “Plant response rating, Ragweed” value ([7]; 125 g ai/ha) was 0. For the same compound, the “Plant response rating, Ragweed” value ([7]; 500 g ai/ha) was 60, the “Plant response rating, Ryegrass, Italian” value ([8]; 125 g ai/ha) was 30 and the “Plant response rating, Ryegrass, Italian” value ([8]; 500 g ai/ha) was 60. The “Plant response rating, Foxtail, Giant” value ([9]; 125 g ai/ha) was 70, the “Plant response rating, Foxtail, Giant” value ([9]; 500 g ai/ha) was 90 and the “Plant response rating, Pigweed” value ([10]; 125 g ai/ha) was 40. The “Plant response rating, Pigweed” value ([10]; 500 g ai/ha) was 60, the “Plant response rating, Blackgrass” value ([11]; 125 g ai/ha) was 30 and the “Plant response rating, Blackgrass” value ([11]; 500 g ai/ha) was 40. The “Plant response rating, Galium” value ([12]; 125 g ai/ha) was 40, the “Plant response rating, Galium” value ([12]; 500 g ai/ha) was 60 and the “Plant response rating, Wheat” value ([13]; 125 g ai/ha) was 0. For the same compound, the “Plant response rating, Wheat” value ([13]; 500 g ai/ha) was 40, the “Plant response rating, Corn” value (corn (Zea mays); 125 g ai/ha) was 50 and the “Plant response rating, Corn” value (corn (Zea mays); 500 g ai/ha) was 70. The “Plant response rating, Rice (Flood)” value (rice (Oryza sativa)) was 0, the “Plant response rating, Sedge, Umbrella (Flood)” value [14] was 0 and the “Plant response rating, Ducksalad (Flood)” value [15] was 100. For the same compound, the “Plant response rating, Barnyardgrass (Flood)” value [16] was 40.
